Data: patent US11053204B2, “Pyrimidinyloxy benzene derivatives as herbicides” (FMC Corporation, priority 2015, dated 2021)

Tests used:
Assay type in all cases: in vivo
[1] = tested on: pigweed (Amaranthus retroflexus); assay: Test A preemergence, visual injury rating; conditions: 0 to 100 scale (0 no effect, 100 complete control)
Procedure, shortened: (§1)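 Visual injury scored 0–100 (100 = complete control) against untreated controls about 10 days after treatment in a greenhouse. Test chemicals, formulated with surfactant in non-phytotoxic solvent, were sprayed on soil preemergence or on 2-10 cm, one- to two-leaf plants postemergence.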

[2] = tested on: Italian ryegrass (Lolium multiflorum); assay: Test A preemergence, visual injury rating; conditions: 0 to 100 scale (0 no effect, 100 complete control)
Procedure, shortened: as §1

[3] = tested on: ragweed (common ragweed, Ambrosia elatior); assay: Test A preemergence, visual injury rating; conditions: 0 to 100 scale (0 no effect, 100 complete control)
Procedure, shortened: as §1

kochia (Kochia scoparia) [4] = assay: Test A preemergence, visual injury rating; conditions: 0 to 100 scale (0 no effect, 100 complete control)
Procedure, shortened: as §1

[5] = tested on: giant foxtail (Setaria faberii); assay: Test A preemergence, visual injury rating; conditions: 0 to 100 scale (0 no effect, 100 complete control)
Procedure, shortened: as §1

[6] = tested on: barnyardgrass (Echinochloa crus-galli); assay: Test A preemergence, visual injury rating; conditions: 0 to 100 scale (0 no effect, 100 complete control)
Procedure, shortened: as §1

[7] = tested on: crabgrass, large (large crabgrass, Digitaria sanguinalis); assay: Test C postemergence, plant response rating; conditions: for Plant response rating, Crabgrass, Large: scale 0 to 100; for Crabgrass, Large plant response rating: scale 0 to 100 (0 no effect, 100 complete control)
Procedure, shortened: (§2)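 Greenhouse plants rated visually against untreated controls 13–15 d after treatment, scale 0 = no effect to 100 = complete control. Postemergence sprays went onto potted plants 2–18 cm tall (1–4 leaves); preemergence sprays onto soil freshly sown in loam–sand or silt loam, chemicals formulated in non-phytotoxic solvent with surfactant.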

[8] = tested on: nutsedge, yellow (yellow nutsedge, Cyperus esculentus); assay: Test C postemergence, plant response rating; conditions: for Plant response rating, Nutsedge, Yellow: scale 0 to 100; for Nutsedge, Yellow plant response rating: scale 0 to 100 (0 no effect, 100 complete control)
Procedure, shortened: as §2

[9] = tested on: galium (catchweed bedstraw, Galium aparine); assay: Test C postemergence, plant response rating; conditions: for Plant response rating, Galium: scale 0 to 100; for Galium plant response rating: scale 0 to 100 (0 no effect, 100 complete control)
Procedure, shortened: as §2

[10] = tested on: wheat (winter wheat, Triticum aestivum); assay: Test C postemergence, plant response rating; conditions: for Plant response rating, Wheat: scale 0 to 100; for Wheat plant response rating: scale 0 to 100 (0 no effect, 100 complete control)
Procedure, shortened: as §2

[11] = tested on: oilseed rape (Brassica napus); assay: Test C postemergence, plant response rating; conditions: for Plant response rating, Oilseed Rape: scale 0 to 100; for Oilseed Rape plant response rating: scale 0 to 100 (0 no effect, 100 complete control)
Procedure, shortened: as §2

[12] = tested on: blackgrass (Alopecurus myosuroides); assay: Test C postemergence, plant response rating; conditions: for Plant response rating, Blackgrass: scale 0 to 100; for Blackgrass plant response rating: scale 0 to 100 (0 no effect, 100 complete control)
Procedure, shortened: as §2

[13] = tested on: morningglory (Ipomoea coccinea); assay: Test C postemergence, plant response rating; conditions: for Plant response rating, Morningglory: scale 0 to 100; for Morningglory plant response rating: scale 0 to 100 (0 no effect, 100 complete control)
Procedure, shortened: as §2

kochia (Kochia scoparia) [14] = assay: Test C postemergence, plant response rating; conditions: for Plant response rating, Kochia: scale 0 to 100; for Kochia plant response rating: scale 0 to 100 (0 no effect, 100 complete control)
Procedure, shortened: as §2

[15] = tested on: barnyardgrass (Echinochloa crus-galli); assay: Test C postemergence, plant response rating; conditions: for Plant response rating, Barnyardgrass: scale 0 to 100; for Barnyardgrass plant response rating: scale 0 to 100 (0 no effect, 100 complete control)
Procedure, shortened: as §2

corn (Zea mays) = assay: Test C postemergence, plant response rating; conditions: for Plant response rating, Corn: scale 0 to 100; for Corn plant response rating: scale 0 to 100 (0 no effect, 100 complete control)
Procedure, shortened: as §2

[16] = tested on: barnyardgrass (Echinochloa crus-galli); assay: Test B flooded paddy test, plant response rating; conditions: 250 g ai/ha; Flood; scale of 0 to 100 where 0 is no effect and 100 is complete control; 13 to 15 days
Procedure, shortened: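 Greenhouse pots flooded to 3 cm above soil at time of treatment received compound via the water, which stayed at that level.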

O=C(OCC(F)(F)F)c1c(Br)cccc1Oc1ncc(Cl)cn1 [Compound 35]
80: Kochia plant response rating (kochia (Kochia scoparia) [4]; 500 g ai/ha)
55: Galium plant response rating ([9]; 62 g ai/ha)
40: Plant response rating, Morningglory ([13]; 16 g ai/ha) | Plant response rating, Kochia (kochia (Kochia scoparia) [14]; 31 g ai/ha)
100: Pigweed plant response rating ([1]; 125 g ai/ha) | Pigweed plant response rating ([1]; 500 g ai/ha) | Foxtail, Giant plant response rating ([5]; 125 g ai/ha) | Foxtail, Giant plant response rating ([5]; 500 g ai/ha)
5: Nutsedge, Yellow plant response rating ([8]; 125 g ai/ha) | Plant response rating, Kochia (kochia (Kochia scoparia) [14]; 16 g ai/ha) | Plant response rating, Barnyardgrass ([15]; 16 g ai/ha) | Plant response rating, Barnyardgrass ([15]; 31 g ai/ha) | Plant response rating, Corn (corn (Zea mays); 16 g ai/ha)
35: Plant response rating, Galium ([9]; 16 g ai/ha) | Plant response rating, Galium ([9]; 31 g ai/ha)
65: Oilseed Rape plant response rating ([11]; 125 g ai/ha)
10: Plant response rating, Crabgrass, Large ([7]; 16 g ai/ha) | Plant response rating, Crabgrass, Large ([7]; 31 g ai/ha) | Crabgrass, Large plant response rating ([7]; 125 g ai/ha) | Blackgrass plant response rating ([12]; 62 g ai/ha) | Blackgrass plant response rating ([12]; 125 g ai/ha) | Barnyardgrass plant response rating ([15]; 62 g ai/ha) | Plant response rating, Corn (corn (Zea mays); 31 g ai/ha)
20: Plant response rating, Oilseed Rape ([11]; 16 g ai/ha) | Corn plant response rating (corn (Zea mays); 62 g ai/ha) | Corn plant response rating (corn (Zea mays); 125 g ai/ha)
70: Barnyardgrass plant response rating ([6]; 125 g ai/ha)
15: Crabgrass, Large plant response rating ([7]; 62 g ai/ha) | Barnyardgrass plant response rating ([15]; 125 g ai/ha)
60: Galium plant response rating ([9]; 125 g ai/ha) | Morningglory plant response rating ([13]; 62 g ai/ha) | Morningglory plant response rating ([13]; 125 g ai/ha) | Kochia plant response rating (kochia (Kochia scoparia) [14]; 62 g ai/ha)
50: Oilseed Rape plant response rating ([11]; 62 g ai/ha) | Plant response rating, Morningglory ([13]; 31 g ai/ha)
90: Barnyardgrass plant response rating ([6]; 500 g ai/ha) | Kochia plant response rating (kochia (Kochia scoparia) [14]; 125 g ai/ha)
30: Ryegrass, Italian plant response rating ([2]; 500 g ai/ha) | Kochia plant response rating (kochia (Kochia scoparia) [4]; 125 g ai/ha) | Plant response rating, Oilseed Rape ([11]; 31 g ai/ha)
0: Ryegrass, Italian plant response rating ([2]; 125 g ai/ha) | Ragweed plant response rating ([3]; 125 g ai/ha) | Ragweed plant response rating ([3]; 500 g ai/ha) | Plant response rating, Nutsedge, Yellow ([8]; 16 g ai/ha) | Plant response rating, Nutsedge, Yellow ([8]; 31 g ai/ha) | Nutsedge, Yellow plant response rating ([8]; 62 g ai/ha) | Plant response rating, Wheat ([10]; 16 g ai/ha) | Plant response rating, Wheat ([10]; 31 g ai/ha) | Wheat plant response rating ([10]; 62 g ai/ha) | Wheat plant response rating ([10]; 125 g ai/ha) | Plant response rating, Blackgrass ([12]; 16 g ai/ha) | Plant response rating, Blackgrass ([12]; 31 g ai/ha) | Plant response rating, Barnyardgrass [16]
